Measurements published in patent US11008292B2, “FGFR4 inhibitor and preparation method and use thereof” (GUANGDONG ZHONGSHENG PHARMACEUTICAL CO., LTD, priority 2016, dated 2021).

Key:
FGFR4 kinases = molecular target: T1, FGFR4 kinases (Homo sapiens, UniProt P22455); test: In vitro enzyme activity test, Z′-LYTE Assay, FGFR4 enzymatic reaction; assay type: biochemical; details: for IC50: Z′-LYTE detection, 150 μM ATP
T1 construct: purchased Life technology
Protocol: (§1) The inhibitory effects of the compounds on FGFR4 kinases were assessed by detecting the enzymatic activities through Z′-LYTE® Assay, with the IC50 value of the compound as the indicator. This activity test was performed by Life technology.
(§2) The test compounds were diluted in a concentration gradient of 3-times, the final concentrations were 10 concentrations ranging from 10 μM to 0.5 nM, with double hole for each concentration; the content of DMSO in the detection reaction was 1%.
FGFR4 Enzymatic Reaction:
[…] The detection plate was Bar-coded Corning, low volume NBS, black 384-well plate, reaction conducted at room temperature for 60 minutes, and the reaction system was 10μμL.
(§3) To the kinase reaction solution was added 5 μL Development reagent B (1:64) to stop the reaction and incubated at 23° C. for 60 minutes, reading the plate with Envision instrument.
(§4) Data was transformed into the phosphorylation rate and the inhibitory rate by curve fitting with Model 205 in XLFIT (iDBS) to obtain the IC50 data of the compounds. It was set as 0% if the bottom of the curve was not in the range of −20% to 20%; otherwise it was set as 100% if the top of the curve was not in the range of 70% to 130%.

[1] = Pharmacokinetic evaluation in mice (IV and oral gavage); assay type: in vivo, female Balb/c nude mice; details: for AUC(0-t) / clearance / half-life / Vd / Cmax / Tmax: mouse, plasma; for AUC(0-t) / clearance / half-life / Vd / Cmax / Tmax / F (bioavailability; oral absorption ratio): female Balb/c nude mice; for clearance: read-out: Cl (plasma clearance); for half-life: read-out: T1/2 (elimination half-life) (converted); for Vd: read-out: Vdss (steady-state apparent volume of distribution); for Cmax: read-out: Cmax (peak concentration); for Tmax: read-out: Tmax (time to peak); for F (bioavailability; oral absorption ratio): PO gavage 10 mg/kg vs IV 2 mg/kg
Protocol: […] The test compound suspended in the corresponding solvent at 1 mg/ml was administered by gavage to female Balb/c nude mice (fasted overnight, at an age of 7-9 weeks), with a dosage of 10 mg/kg. Two groups of animals were both blood sampled about 30 μL from jugular vein or tail vein at 0.0833, 0.25, 0.5, 1.0, 2.0, 4.0, 6.0, 8.0 and 24 h post-administration, which was placed into an anticoagulant tube charged with EDTA-K2, and plasma was separated by centrifugation. Plasma concentrations were determined by LC-MS/MS process using WinNonlin™ Version 6.3 (Pharsight, Mountain View, Calif.) pharmacokinetic software, calculating the related pharmacokinetic parameters with a linear logarithmic trapezoidal method for […] models.

FGFR1 protein kinase = molecular target: T2, FGFR1 protein kinase (Homo sapiens, UniProt P11362); test: In vitro enzyme activity test, Z′-LYTE Assay, FGFR1 enzymatic reaction; assay type: biochemical; details: Z′-LYTE detection; 25 μM ATP
T2 construct: purchased Life technology
Protocol: as §1, §2
FGFR1 Enzymatic Reaction:
1 nM FGFR1 protein kinase, 2 μM Tyr4 peptide, 25 μM ATP, 50 mM HEPES (pH 7.5), 10 mM MgCl2, 1 mM EGTA, 0.01% BRIJ-35, 2 mM MnCl2, 1 mM DTT. The detection plate was Black Proxiplate 384-Plus plate (PerkinElmer), reaction conducted at room temperature for 60 minutes, and the reaction system was 10μμL.
as §3, §4

[2] = system: Hep3B Transplantation Models; test: Tumor growth inhibition (TGI), antitumor activity test of mice in vivo; details: Hep3B transplantation model
Protocol: The evolutionary growth potential of a tumor was assessed by the relationship between the volume of the tumor and time. The long axis (L) and short axis (W) of a subcutaneous tumor were determined by a caliper twice a week, the tumor volume (TV) was calculated by the formula of ((L×W^2)/2). TGI was calculated by the difference value between the median of tumor volumes of mice in the solvent group and the median of tumor volumes of mice in the drug group, and represented by the percentage accounting for the median of tumor volumes in the solvent control group,
Calculated by the following formula: % TGI=((the median of tumor volume (control group)−the median of tumor volume (dosing group))/the median of tumor volume (control group))×100%
The original statistical analysis was completed by the analysis of repeated variance determination. Subsequently, multiple comparisons were performed by a Scheffe psot hoc experimental method. Single solvent (0.5% methylcellulose+1% aqueous solution of Tween) was the negative control.

T2 sequence (P11362 22-822): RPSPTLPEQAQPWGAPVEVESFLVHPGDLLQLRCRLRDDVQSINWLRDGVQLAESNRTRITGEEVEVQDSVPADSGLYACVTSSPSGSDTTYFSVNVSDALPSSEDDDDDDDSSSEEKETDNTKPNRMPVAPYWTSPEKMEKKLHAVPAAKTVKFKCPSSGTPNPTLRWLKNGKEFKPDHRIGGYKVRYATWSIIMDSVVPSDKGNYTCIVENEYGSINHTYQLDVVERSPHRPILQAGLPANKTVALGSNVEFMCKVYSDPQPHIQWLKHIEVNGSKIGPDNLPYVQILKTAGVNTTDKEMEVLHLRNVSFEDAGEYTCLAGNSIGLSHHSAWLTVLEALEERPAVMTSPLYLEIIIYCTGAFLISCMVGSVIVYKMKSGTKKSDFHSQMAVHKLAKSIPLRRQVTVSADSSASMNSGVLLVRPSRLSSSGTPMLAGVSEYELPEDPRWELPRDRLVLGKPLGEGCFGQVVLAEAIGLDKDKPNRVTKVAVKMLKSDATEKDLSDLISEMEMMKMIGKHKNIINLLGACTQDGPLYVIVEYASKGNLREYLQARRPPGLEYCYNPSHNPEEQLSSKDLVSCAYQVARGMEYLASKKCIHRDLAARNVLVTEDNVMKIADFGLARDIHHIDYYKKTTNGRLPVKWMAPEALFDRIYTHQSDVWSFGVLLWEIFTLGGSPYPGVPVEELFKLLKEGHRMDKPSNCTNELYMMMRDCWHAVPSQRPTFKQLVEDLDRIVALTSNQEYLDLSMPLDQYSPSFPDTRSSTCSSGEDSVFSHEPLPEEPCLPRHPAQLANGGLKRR
T1 sequence (P22455 22-802): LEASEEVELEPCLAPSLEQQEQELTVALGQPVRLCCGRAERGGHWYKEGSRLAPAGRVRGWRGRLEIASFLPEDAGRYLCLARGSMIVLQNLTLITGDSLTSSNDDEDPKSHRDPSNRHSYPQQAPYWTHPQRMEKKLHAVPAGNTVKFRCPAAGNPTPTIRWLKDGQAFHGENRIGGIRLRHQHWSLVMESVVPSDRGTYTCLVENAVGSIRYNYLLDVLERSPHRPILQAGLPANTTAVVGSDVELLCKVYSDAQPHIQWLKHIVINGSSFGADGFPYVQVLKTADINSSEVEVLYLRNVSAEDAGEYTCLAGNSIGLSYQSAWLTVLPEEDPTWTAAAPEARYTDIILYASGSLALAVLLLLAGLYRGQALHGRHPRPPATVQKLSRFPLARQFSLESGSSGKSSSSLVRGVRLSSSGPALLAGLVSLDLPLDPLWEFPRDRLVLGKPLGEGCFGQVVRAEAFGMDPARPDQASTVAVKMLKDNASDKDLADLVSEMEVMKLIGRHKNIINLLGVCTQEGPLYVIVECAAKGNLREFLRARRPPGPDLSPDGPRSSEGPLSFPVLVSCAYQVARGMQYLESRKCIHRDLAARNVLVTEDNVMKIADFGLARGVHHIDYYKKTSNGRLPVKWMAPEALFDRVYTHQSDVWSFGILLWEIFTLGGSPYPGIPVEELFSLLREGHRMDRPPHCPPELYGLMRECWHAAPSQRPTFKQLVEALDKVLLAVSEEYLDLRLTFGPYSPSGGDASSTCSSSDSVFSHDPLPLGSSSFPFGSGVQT

C=CC(=O)N[C@H]1CCOC[C@H]1Nc1ncc(/C=C(\F)c2c(Cl)c(OC)cc(OC)c2Cl)cn1 [Example 16]
IC50 (FGFR4 kinases): 67.5 nM | stability enhanced (plasma clearance) compared with the control example 4 ([1]; IV, mice, ratio to control example 4): 3 times | AUC(0-t) ([1]; IV tail vein 2 mg/kg): 2.8 µM·h | clearance ([1]; IV tail vein 2 mg/kg): 23.9 mL/min/kg | half-life ([1]; IV tail vein 2 mg/kg): 40.6 min | Vd ([1]; IV tail vein 2 mg/kg): 1.2 L/kg | AUC(0-t) ([1]; PO gavage 10 mg/kg): 5.64 µM·h | Cmax ([1]; PO gavage 10 mg/kg): 3290 nM | Tmax ([1]; PO gavage 10 mg/kg): 30 min | IC50 (FGFR1 protein kinase): 2520 nM | TGI % (dosing on Day 21 for the last time) ([2]; 100 mg/kg, BID): 89%

C=CC(=O)Nc1cccc(C)c1Nc1ccc(/C=C(\F)c2c(Cl)c(OC)cc(OC)c2Cl)cn1 [Example 7]
IC50 (FGFR4 kinases): 31 nM | IC50 (FGFR1 protein kinase): > 10000 nM | TGI % (dosing on Day 21 for the last time) ([2]; 30 mg/kg BID): 108%

C=CC(=O)Nc1cccc(C)c1Nc1ncc(/C=C(\F)c2c(Cl)c(OC)cc(OC)c2Cl)cn1 [Example 24]
IC50 (FGFR4 kinases): 10 nM | stability enhanced (plasma clearance) compared with the control example 5 ([1]; IV, mice, ratio to control example 5): 2 times | stability enhanced (plasma clearance) compared with the control example 6 ([1]; IV, mice, ratio to control example 6): more than 3 times | F (bioavailability; oral absorption ratio) [1]: 14.8% | AUC(0-t) ([1]; IV tail vein 2 mg/kg): 1.32 µM·h | clearance ([1]; IV tail vein 2 mg/kg): 50 mL/min/kg | half-life ([1]; IV tail vein 2 mg/kg): 32.9 min | Vd ([1]; IV tail vein 2 mg/kg): 1.82 L/kg | AUC(0-t) ([1]; PO gavage 10 mg/kg): 0.962 µM·h | Cmax ([1]; PO gavage 10 mg/kg): 282 nM | Tmax ([1]; PO gavage 10 mg/kg): 30 min | IC50 (FGFR1 protein kinase): 2100 nM

C=CC(=O)Nc1ccc(N2CCN(CC)CC2)c(C)c1Nc1ncc(/C=C(\F)c2c(Cl)c(OC)cc(OC)c2Cl)cn1 [Example 13]
IC50 (FGFR4 kinases): 30.1 nM | IC50 (FGFR1 protein kinase): 613 nM

C=CC(=O)Nc1ccc(OC)c(C)c1Nc1ncc(/C=C(\F)c2c(Cl)c(OC)cc(OC)c2Cl)cn1 [Example 35]
IC50 (FGFR4 kinases): 23 nM | IC50 (FGFR1 protein kinase): 174 nM

C=CC(=O)NC1COCC1Nc1ncc(C=C(F)c2c(Cl)c(OC)cc(OC)c2Cl)cn1 (single isomer, unassigned) [Example 21]
IC50 (FGFR4 kinases): 17 nM | F (bioavailability; oral absorption ratio) [1]: 20.4% | AUC(0-t) ([1]; IV tail vein 2 mg/kg): 1.42 µM·h | clearance ([1]; IV tail vein 2 mg/kg): 48.2 mL/min/kg | half-life ([1]; IV tail vein 2 mg/kg): 17.5 min | Vd ([1]; IV tail vein 2 mg/kg): 0.723 L/kg | AUC(0-t) ([1]; PO gavage 10 mg/kg): 1.07 µM·h | Cmax ([1]; PO gavage 10 mg/kg): 1120 nM | Tmax ([1]; PO gavage 10 mg/kg): 15 min | IC50 (FGFR1 protein kinase): 1460 nM | TGI % (dosing on Day 21 for the last time) ([2]; 100 mg/kg, BID): 106%

C=CC(=O)Nc1cccc(C)c1Nc1ccc(/C(F)=C/c2cc(OC)cc(OC)c2)cn1 [Control example 1, reference compound]
IC50 (FGFR4 kinases): 8060 nM | IC50 (FGFR1 protein kinase): > 10000 nM

C=CC(=O)Nc1ccc(Cl)c(C)c1Nc1ccc(/C=C(\F)c2c(Cl)c(OC)cc(OC)c2Cl)cn1 [Example 31]
IC50 (FGFR4 kinases): 560 nM | IC50 (FGFR1 protein kinase): > 10000 nM

C=CC(=O)Nc1cc(N2CCN(CC)CC2)c(OC)cc1Nc1ncc(/C=C(\F)c2c(Cl)c(OC)cc(OC)c2Cl)cn1 [Example 12]
IC50 (FGFR4 kinases): 10.9 nM | IC50 (FGFR1 protein kinase): 25.8 nM

C=CC(=O)Nc1cc(N2CCN(CC)CC2)cc(C)c1Nc1ncc(/C=C/c2c(Cl)c(OC)cc(OC)c2Cl)cn1 [Control example 2, reference compound]
IC50 (FGFR4 kinases): 14 nM | IC50 (FGFR1 protein kinase): 2970 nM

C=CC(=O)Nc1cccc(C)c1Nc1ccc(/C(F)=C/c2c(Cl)c(OC)cc(OC)c2Cl)cn1 [Example 1]
IC50 (FGFR4 kinases): 112 nM | FGFR4 inhibitory activity enhanced compared with the control example 1 (FGFR4 kinases; ratio to control example 1): 70 times | IC50 (FGFR1 protein kinase): > 10000 nM

C=CC(=O)N[C@@H]1CCC[C@@H]1Nc1ncc(/C=C(\F)c2c(Cl)c(OC)cc(OC)c2Cl)cn1 [Example 25]
IC50 (FGFR4 kinases): 476 nM | IC50 (FGFR1 protein kinase): 355 nM

C=CC(=O)N[C@H]1COC[C@H]1Nc1ncc(/C=C(\F)c2c(Cl)c(OC)cc(OC)c2Cl)cn1 [Example 19]
IC50 (FGFR4 kinases): 47 nM | FGFR4 inhibitory activity enhancement vs control example (FGFR4 kinases; ratio to control example 3): ~9 times | IC50 (FGFR1 protein kinase): 3100 nM
